Results reported in patent publication US11548899B2, “Fused 1,4-oxazepines and related analogs as BET bromodomain inhibitors” (THE REGENTS OF THE UNIVERSITY OF MICHIGAN, priority 2016, dated 2023).
Several values for one entry are separate records, joined by “and”; a condition that tells them apart may be missing. Equal entries are not always repeated. Where two headings read alike, the source gives them in different places.

Assays:
MOLM-13 = assay: Cell growth inhibition, 4-day proliferation assay, MOLM-13; type: cell-based; conditions: read-out: Cell Viability (IC50, μM) MOLM-13
Method: The effect of representative Compounds of the Disclosure on cell viability was determined in a 4-day proliferation assay. Cells were maintained in the appropriate culture medium with 10% FBS at 37° C. and an atmosphere of 5% CO2. All the cell lines were used within three months of thawing fresh vials.
Cells were seeded in 96-well flat bottom (Corning COSTAR, Corning, N.Y., cat #3595) or white opaque cell culture plates (BD Falcon, cat #353296) at a density of 3,000-10,000 cells/well in 75 μl of culture medium. Compounds were serially diluted in the appropriate medium, and 75 μl of the diluted compounds were added to the appropriate wells of the cell plate. After the addition of compounds, the cells were incubated at 37° C. in an atmosphere of 5% CO2 for 4 days. Cell viability was determined using the CellTiter-Glo® Luminescent Cell Viability Assay Kit (Promega, Madison, Wis.) for leukemia cells and WST (2-(2-methoxy-4-nitrophenyl)-3-(4-nitrophenyl)-5-(2,4-disulfophenyl)-2H-tetrazolium, monosodium salt) Cell Counting-8 Kit (Dojindo Molecular Technologies, Inc., Rockville, Md.) for adhenrent cells according to the manufacturers' instructions. […]
For CellTiter-Glo assay (suspension cells), 100 μl of CellTiter-Glo® Reagent was added to each well, and then the plates were incubated at room temperature for 10-20 minutes. The luminescent signal was measured using a Tecan Infinite M1000 multimode microplate reader (Tecan, Morrisville, N.C.). The readings were normalized to the DMSO-treated cells and the IC50 was calculated by nonlinear regression (four parameters sigmoid fitted with variable slope, least squares fit, and no constraint) analysis using the GraphPad Prism 5 software. See US 2014/0256706.

recombinant BRD4 BD1 = biological target: T1, recombinant BRD4 BD1 (Homo sapiens, UniProt O60885); assay: Competitive fluorescence-polarization (FP) binding assay, BRD4 BD1; conditions: protein 10 nM, probe 1.5 nM
T1 construct: recombinant BRD4 BD1 and BRD4 BD2 proteins
Method: Fluorescence Polarization (FP) competitive binding studies were carried out using a FAM labeled fluorescent probe, see Cpd. […] Equilibrium dissociation constants (Kd) values of the fluorescent probe to BRD4 BD1 and BD2 proteins were determined from protein saturation experiments by monitoring the total fluorescence polarization of mixtures composed with the fluorescent probe at a fixed concentration and proteins with increasing concentrations up to full saturation. […] Plates were incubated at room temperature for 30 minutes with gentle shaking to assure equilibrium.
The IC50 and Ki values of compounds were determined in a competitive binding experiment. […] Mixtures of 10 μl of the tested compounds in assay buffer with 40% Ethylene Glycol and 190 μl of preincubated protein/probe complex solution in the assay buffer (100 mM potassium phosphate, pH 6.5, 0.01% Triton X-100) were added into assay plates which were incubated at room temperature for 30 minutes with gentle shaking. Final concentrations of proteins were 10 and 6 nM in assays for BRD4 BD1 and BD2, respectively. […] FP values were measured as described above. IC50 values were determined by nonlinear regression fitting of the competition curves.

recombinant BRD4 BD2 = biological target: T2, recombinant BRD4 BD2 (Homo sapiens, UniProt O60885); assay: Competitive fluorescence-polarization (FP) binding assay, BRD4 BD2; conditions: protein 6 nM, probe 1.5 nM
T2 construct: recombinant BRD4 BD1 and BRD4 BD2 proteins
Method: Fluorescence Polarization (FP) competitive binding studies were carried out using a FAM labeled fluorescent probe, see Cpd. […] Equilibrium dissociation constants (Kd) values of the fluorescent probe to BRD4 BD1 and BD2 proteins were determined from protein saturation experiments by monitoring the total fluorescence polarization of mixtures composed with the fluorescent probe at a fixed concentration and proteins with increasing concentrations up to full saturation. Serial dilutions of testing proteins were mixed with the fluorescent probe to a final volume of 200 μl in the assay buffer (100 mM phosphate buffer, pH=6.5, 0.01% Triton X-100 (Sigma, 282103) being added right before assays). Final fluorescent probe concentration was 1.5 nM for both proteins. Plates were incubated at room temperature for 30 minutes with gentle shaking to assure equilibrium. FP values in millipolarization units (mP) were measured using the Infinite M-1000 plate reader (Tecan U.S., Research Triangle Park, N.C.) in Microfluor 1 96-well, black, round-bottom plates (Thermo Scientific, Waltham, Mass.) at an excitation wavelength of 485 nm and an emission wavelength of 530 nm.
The IC50 and Ki values of compounds were determined in a competitive binding experiment. […] Mixtures of 10 μl of the tested compounds in assay buffer with 40% Ethylene Glycol and 190 μl of preincubated protein/probe complex solution in the assay buffer (100 mM potassium phosphate, pH 6.5, 0.01% Triton X-100) were added into assay plates which were incubated at room temperature for 30 minutes with gentle shaking. Final concentrations of proteins were 10 and 6 nM in assays for BRD4 BD1 and BD2, respectively. Final probe concentration is 1.5 nM in both assays. […] FP values were measured as described above. IC50 values were determined by nonlinear regression fitting of the competition curves.

[1] = Homo sapiens, MOLM-13, 96 h, 4 days incubation, MOLM-13 cells
[2] = FP competitive binding, read-out: IC50 (nM) BRD4 BD1

## Cc1nnc2n1-c1sc(Br)c(Cc3ccccc3)c1COC2 [Cpd. No. 31, 3-benzyl-2-bromo-9-methyl-4H,6H-thieno[2,3-e][1,2,4]triazolo[3,4-c][1,4]oxazepine]
MOLM-13; 4 days incubation, MOLM-13 cells
  IC50: 1.7 µM
MOLM-13; [1]
  IC50: 1.4 µM
Recombinant BRD4 BD1; [2]
  IC50: 209 nM and 265 nM and 352 nM

## Cc1sc2c(c1Cc1ccccc1)CN(C)[C@@H](C)c1nnc(C)n1-2 [Cpd. No. 20, (S)-3-benzyl-2,5,6,9-tetramethyl-5,6-dihydro-4H-thieno[3,2-f][1,2,4]triazolo[4,3-a][1,4]diazepine]
MOLM-13; [1]
  IC50: 1.3 µM
Recombinant BRD4 BD2
  IC50: 636 nM and 1210 nM
Recombinant BRD4 BD1; [2]
  IC50: 235 nM and 340 nM

## Cc1sc2c(c1Cc1cccc(Cl)c1)COCc1nnc(C)n1-2 [Cpd. No. 8, 3-(3-chlorobenzyl)-2,9-dimethyl-4H,6H-thieno[2,3-e][1,2,4]triazolo[3,4-c][1,4]oxazepine]
MOLM-13; [1]
  IC50: 2.5 µM
Recombinant BRD4 BD2
  IC50: 285 nM
Recombinant BRD4 BD1; [2]
  IC50: 311 nM

## CCOC(=O)N1Cc2c(sc(C)c2Cc2ccccc2)-n2c(C)nnc2[C@@H]1C [Cpd. No. 18, ethyl (S)-3-benzyl-2,6,9-trimethyl-4H-thieno[3,2-f][1,2,4]triazolo[4,3-a][1,4]diazepine-5(6H)-carboxylate]
MOLM-13; Homo sapiens, MOLM-13, 96 h
  IC50: 4.3 µM
Recombinant BRD4 BD2
  IC50: 601 nM
Recombinant BRD4 BD1; [2]
  IC50: 532 nM

## Cc1sc2c(c1Cc1ccccc1Cl)COCc1nnc(C)n1-2 [Cpd. No. 10, 3-(2-chlorobenzyl)-2,9-dimethyl-4H,6H-thieno[2,3-e][1,2,4]triazolo[3,4-c][1,4]oxazepine]
MOLM-13; [1]
  IC50: 3.4 µM
Recombinant BRD4 BD2
  IC50: 312 nM
Recombinant BRD4 BD1; [2]
  IC50: 263 nM

## Cc1nnc2n1-c1cccc(Cc3ccc(OC(F)(F)F)cc3)c1COC2 [Cpd. No. 45, 1-methyl-7-(4-(trifluoromethoxy)benzyl)-4,6-dihydrobenzo[e][1,2,4]triazolo[3,4-c][1,4]oxazepine]
Recombinant BRD4 BD2
  IC50: 1370 nM
Recombinant BRD4 BD1; [2]
  IC50: 1550 nM

## COC(=O)C[C@@H]1NCc2c(sc(C)c2Cc2ccccc2)-n2c(C)nnc21 [Cpd. No. 23, methyl(S)-2-(3-benzyl-2,9-dimethyl-5,6-dihydro-4H-thieno[3,2-f][1,2,4]triazolo[4,3-a][1,4]diazepin-6-yl)acetate]
Recombinant BRD4 BD2
  IC50: 9010 nM
Recombinant BRD4 BD1; [2]
  IC50: 2500 nM

## CCNC(=O)N1Cc2c(sc(C)c2Cc2ccccc2)-n2c(C)nnc2[C@@H]1C [Cpd. No. 22, (S)-3-benzyl-N-ethyl-2,6,9-trimethyl-4H-thieno[3,2-f][1,2,4]triazolo[4,3-a][1,4]diazepine-5(6H)-carboxamide]
Recombinant BRD4 BD2
  IC50: 5920 nM
Recombinant BRD4 BD1; [2]
  IC50: 6060 nM

## CCC(=O)N1Cc2c(sc(C)c2Cc2ccccc2)-n2c(C)nnc2[C@@H]1C [Cpd. No. 19, (S)-1-(3-benzyl-2,6,9-trimethyl-4H-thieno[3,2-f][1,2,4]triazolo[4,3-a][1,4]diazepin-5(6H)-yl)propan-1-one]
Recombinant BRD4 BD2
  IC50: 3210 nM
Recombinant BRD4 BD1; [2]
  IC50: 2430 nM

## Cc1nnc2n1-c1ccc(Cl)c(Cc3ccccc3)c1COC2 [Cpd. No. 71, 7-benzyl-8-chloro-1-methyl-4,6-dihydrobenzo[e][1,2,4]triazolo[3,4-c][1,4]oxazepine]
MOLM-13; Homo sapiens, MOLM-13, 96 h
  IC50: 3.8 µM
Recombinant BRD4 BD1; IC50 (nM) BRD4 BD1, FP competitive binding
  IC50: 864 nM

## Cc1sc2c(c1Cc1ccccc1)CN(C)[C@H](C)c1nnc(C)n1-2 [Cpd. No. 34, (R)-3-benzyl-2,5,6,9-tetramethyl-5,6-dihydro-4H-thieno[3,2-f][1,2,4]triazolo[4,3-a][1,4]diazepine]
MOLM-13; [1]
  IC50: 1 µM

## C#Cc1sc2c(c1Cc1ccccc1)COCc1nnc(C)n1-2 [Cpd. No. 33, 3-benzyl-2-ethynyl-9-methyl-4H,6H-thieno[2,3-e][1,2,4]triazolo[3,4-c][1,4]oxazepine]
MOLM-13; [1]
  IC50: 1 µM

## Cc1nnc2n1-c1cccc(C3CCc4ccccc43)c1COC2 (stereo not drawn) [Cpd. No. 47, 7-(2,3-dihydro-1H-inden-1-yl)-1-methyl-4,6-dihydrobenzo[e][1,2,4]triazolo[3,4-c][1,4]oxazepine]
Recombinant BRD4 BD2
  IC50: 303 nM
Recombinant BRD4 BD1; [2]
  IC50: 1200 nM

## Cc1sc2c(c1Cn1cccn1)COCc1nnc(C)n1-2 [Cpd. No. 112, 3-((1H-pyrazol-1-yl)methyl)-2,9-dimethyl-4H,6H-thieno[2,3-e][1,2,4]triazolo[3,4-c][1,4]oxazepine]
Recombinant BRD4 BD2
  IC50: 3230 nM and 3850 nM and 3950 nM
Recombinant BRD4 BD1; [2]
  IC50: 1370 nM and 2610 nM and 1760 nM

## Cc1sc2c(c1Cc1ccccc1)CN[C@@H](C)c1nnc(C)n1-2 [Cpd. No. 13, (S)-3-benzyl-2,6,9-trimethyl-5,6-dihydro-4H-thieno[3,2-f][1,2,4]triazolo[4,3-a][1,4]diazepine]
Recombinant BRD4 BD2
  IC50: 1210 nM and 1350 nM
Recombinant BRD4 BD1; [2]
  IC50: 1070 nM and 1200 nM

## Cc1sc2c(c1Cc1ccccc1)COC(CC(=O)OC(C)(C)C)c1nnc(C)n1-2 (stereo not drawn) [Cpd. No. 115, tert-butyl 2-(3-benzyl-2,9-dimethyl-4H,6H-thieno[2,3-e][1,2,4]triazolo[3,4-c][1,4]oxazepin-6-yl)acetate]
Recombinant BRD4 BD2
  IC50: 338 nM
Recombinant BRD4 BD1; [2]
  IC50: 170 nM

## Cc1nnc2n1-c1cccc(S(=O)(=O)c3ccccc3)c1COC2 [Cpd. No. 42, 1-methyl-7-(phenylsulfonyl)-4,6-dihydrobenzo[e][1,2,4]triazolo[3,4-c][1,4]oxazepine]
Recombinant BRD4 BD2
  IC50: 5020 nM
Recombinant BRD4 BD1; [2]
  IC50: 10300 nM

## Cc1sc2c(c1C1CCCc3ccccc31)COCc1nnc(C)n1-2 (stereo not drawn) [Cpd. No. 54, 2,9-dimethyl-3-(1,2,3,4-tetrahydronaphthalen-1-yl)-4,6-dihydrothieno[2,3-e][1,2,4]triazolo[3,4-c][1,4]oxazepine]
Recombinant BRD4 BD2
  IC50: 127 nM
Recombinant BRD4 BD1; [2]
  IC50: 210 nM

## Cc1nnc2n1-c1cccc([S+]([O-])c3ccccc3)c1COC2 (stereo not drawn) [Cpd. No. 41, 1-methyl-7-(phenylsulfinyl)-4,6-dihydrobenzo[e][1,2,4]triazolo[3,4-c][1,4]oxazepine]
Recombinant BRD4 BD2
  IC50: 16600 nM
Recombinant BRD4 BD1; [2]
  IC50: 18000 nM

## Cc1sc2c(c1Cc1ccccc1)CO[C@H](C)c1nnc(C)n1-2 [Cpd. No. 114, (R)-3-benzyl-2,6,9-trimethyl-4H,6H-thieno[2,3-e][,2,4]triazolo[3,4-c][1,4]oxazepine]
Recombinant BRD4 BD2
  IC50: 297 nM
Recombinant BRD4 BD1; [2]
  IC50: 249 nM

## Cc1nnc2n1-c1cccc(Cc3ccccc3)c1COC2 [Cpd. No. 38, 7-benzyl-1-methyl-4,6-dihydrobenzo[e][1,2,4]triazolo[3,4-c][1,4]oxazepine]
Recombinant BRD4 BD2
  IC50: 367 nM
Recombinant BRD4 BD1; [2]
  IC50: 1420 nM and 1260 nM

## Cc1sc2c(c1C1=CCCc3ccccc31)COCc1nnc(C)n1-2 [Cpd. No. 51, 3-(3,4-dihydronaphthalen-1-yl)-2,9-dimethyl-4,6-dihydrothieno[2,3-e][1,2,4]triazolo[3,4-c][1,4]oxazepine]
Recombinant BRD4 BD2
  IC50: 207 nM
Recombinant BRD4 BD1; [2]
  IC50: 256 nM

## Cc1nnc2n1-c1sc(-c3ccc(N)nc3)c(Cc3ccccc3)c1COC2 [Cpd. No. 32, 5-(3-benzyl-9-methyl-4H,6H-thieno[2,3-e][1,2,4]triazolo[3,4-c][1,4]oxazepin-2-yl)pyridin-2-amine]
MOLM-13; [1]
  IC50: 1.9 µM
Recombinant BRD4 BD1; [2]
  IC50: 294 nM

## Cc1sc2c(c1Cc1ccccc1)CN(S(=O)(=O)CCc1ccccc1)[C@@H](C)c1nnc(C)n1-2 [Cpd. No. 26, (S)-3-benzyl-2,6,9-trimethyl-5-(phenethylsulfonyl)-5,6-dihydro-4H-thieno[3,2-f][1,2,4]triazolo[4,3-a][1,4]diazepine]
Recombinant BRD4 BD2
  IC50: 4460 nM
Recombinant BRD4 BD1; [2]
  IC50: 9600 nM

## Cc1sc2c(c1Cc1ccccc1)CN(C1CCC1)[C@@H](C)c1nnc(C)n1-2 [Cpd. No. 29, (S)-3-benzyl-5-cyclobutyl-2,6,9-trimethyl-5,6-dihydro-4H-thieno[3,2-f][1,2,4]triazolo[4,3-a][1,4]diazepine]
Recombinant BRD4 BD2
  IC50: 5860 nM
Recombinant BRD4 BD1; [2]
  IC50: 1470 nM

## Cc1nnc2n1-c1cccc(Sc3ccccc3)c1COC2 [Cpd. No. 39, 1-methyl-7-(phenylthio)-4,6-dihydrobenzo[e][1,2,4]triazolo[3,4-c][1,4]oxazepine]
Recombinant BRD4 BD2
  IC50: 1060 nM
Recombinant BRD4 BD1; [2]
  IC50: 5450 nM

## Cc1nnc2n1-c1ccc(-c3cnn(C)c3)c(Cc3ccccc3)c1COC2 [Cpd. No. 73, 7-benzyl-1-methyl-8-(1-methyl-1H-pyrazol-4-yl)-4,6-dihydrobenzo[e][1,2,4]triazolo[3,4-c][1,4]oxazepine]
MOLM-13; [1]
  IC50: 1.1 µM
Recombinant BRD4 BD1; [2]
  IC50: 234 nM and 366 nM

## Cc1nnc2n1-c1cccc(C(=O)c3ccccc3)c1COC2 [Cpd. No. 52, (1-methyl-4,6-dihydrobenzo[e][1,2,4]triazolo[3,4-c][1,4]oxazepin-7-yl)(phenyl)methanone]
Recombinant BRD4 BD2
  IC50: > 10000 nM
Recombinant BRD4 BD1; [2]
  IC50: > 10000 nM

## CCOC(=O)CN1Cc2c(sc(C)c2Cc2ccccc2)-n2c(C)nnc2[C@@H]1C [Cpd. No. 25, ethyl (S)-2-(3-benzyl-2,6,9-trimethyl-4H-thieno[3,2-f][1,2,4]triazolo[4,3-a][1,4]diazepin-5(6H)-yl)acetate]
Recombinant BRD4 BD2
  IC50: 1100 nM
Recombinant BRD4 BD1; [2]
  IC50: 942 nM

## Cc1sc2c(c1Cc1ccccc1)CN(C)Cc1nnc(C)n1-2 [Cpd. No. 35, 3-benzyl-2,5,9-trimethyl-5,6-dihydro-4H-thieno[3,2-f][1,2,4]triazolo[4,3-a][1,4]diazepine]
MOLM-13; [1]
  IC50: 2.2 µM
Recombinant BRD4 BD1; [2]
  IC50: 602 nM
